Experimental data: patent US11339120B2, “Phenyl derivatives as cannabinoid receptor 2 agonists” (priority 2015, dated 2022)
Where two headings read alike, the source gives them in different places.

What was measured:
human CB1 receptors = biological target: T1, human CB1 receptors (Homo sapiens, UniProt P21554); test: functional cAMP assay, CHO cells expressing human CB1; format: cell-based
T1 construct: expressed in transfected cells; host or cells: CHO cells
Experimental: (§1) CHO cells expressing human CB1 or CB2 receptors are seeded 17-24 hours prior to the experiment 50.000 cells per well in a black 96 well plate with flat clear bottom (Corning Costar #3904) in DMEM (Invitrogen No. 31331), 1×HT supplement, with 10% fetal calf serum and incubated at 5% CO2 and 37° C. in a humidified incubator. The growth medium was exchanged with Krebs Ringer Bicarbonate buffer with 1 mM IBMX and incubated at 30° C. for 30 min. Compounds were added to a final assay volume of 100 μl and incubated for 30 min at 30° C. Using the cAMP-Nano-TRF detection kit the assay (Roche Diagnostics) was stopped by the addition of 50 μl lysis reagent (Tris, NaCl, 1.5% Triton X100, 2.5% NP40, 10% NaN3) and 50 μl detection solutions (20 μM mAb Alexa700-cAMP 1:1, and 48 μM Ruthenium-2-AHA-cAMP) and shaken for 2 h at room temperature. The time-resolved energy transfer is measured by a TRF reader (Evotec Technologies GmbH), equipped with a ND:YAG laser as excitation source. The plate is measured twice with the excitation at 355 nm and at the emission with a delay of 100 ns and a gate of 100 ns, total exposure time 10 s at 730 (bandwidth 30 nm) or 645 nm (bandwidth 75 nm), respectively. The FRET signal is calculated as follows: FRET=T730-Alexa730-P(T645-B645) with P=Ru730-B730/Ru645-B645, where T730 is the test well measured at 730 nM, T645 is the test well measured at 645 nm, B730 and B645 are the buffer controls at 730 nm and 645 nm, respectively. cAMP content is determined from the function of a standard curve spanning from 10 μM to 0.13 nM cAMP.
(§2) EC50 values were determined using Activity Base analysis (ID Business Solution, Limited). The EC50 values for a wide range of cannabinoid agonists generated from this assay were in agreement with the values published in the scientific literature.

human CB2 receptors = biological target: T2, human CB2 receptors (Homo sapiens, UniProt P34972); test: functional cAMP assay, CHO cells expressing human CB2; format: cell-based
T2 construct: expressed in transfected cells; host or cells: CHO cells
Experimental: as §1, §2

[1] = functional cAMP assay, CHO cells expressing human CB2, read-out: Human CB2 EC50

T2 sequence (P34972 whole entry): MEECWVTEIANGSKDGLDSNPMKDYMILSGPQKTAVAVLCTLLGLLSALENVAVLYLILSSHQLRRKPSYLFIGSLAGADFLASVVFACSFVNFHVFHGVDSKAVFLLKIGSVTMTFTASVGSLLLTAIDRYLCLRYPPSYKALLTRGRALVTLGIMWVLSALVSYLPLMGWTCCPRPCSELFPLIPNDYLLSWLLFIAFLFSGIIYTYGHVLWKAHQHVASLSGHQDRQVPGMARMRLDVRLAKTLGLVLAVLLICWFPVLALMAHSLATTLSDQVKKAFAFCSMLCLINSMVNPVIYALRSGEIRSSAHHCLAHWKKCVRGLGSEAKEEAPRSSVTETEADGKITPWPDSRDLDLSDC
T1 sequence (P21554 whole entry): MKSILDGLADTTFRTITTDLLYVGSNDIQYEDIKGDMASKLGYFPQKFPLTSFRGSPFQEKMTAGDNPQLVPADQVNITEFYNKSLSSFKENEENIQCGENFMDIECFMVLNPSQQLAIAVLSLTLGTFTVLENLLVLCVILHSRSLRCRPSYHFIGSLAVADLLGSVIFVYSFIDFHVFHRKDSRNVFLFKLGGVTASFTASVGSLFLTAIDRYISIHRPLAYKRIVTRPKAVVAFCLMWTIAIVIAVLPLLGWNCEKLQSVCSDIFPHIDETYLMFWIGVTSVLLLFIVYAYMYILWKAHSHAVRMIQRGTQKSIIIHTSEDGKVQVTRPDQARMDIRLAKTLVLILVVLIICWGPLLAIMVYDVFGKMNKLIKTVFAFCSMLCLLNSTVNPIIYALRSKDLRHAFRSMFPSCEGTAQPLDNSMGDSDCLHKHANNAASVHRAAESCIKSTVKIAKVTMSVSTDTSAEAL

| Structure (SMILES) | EC50 (human CB1 receptors) [nM] | EC50 (human CB2 receptors) [nM] | EC50 (human CB2 receptors; [1]) [nM] |
| --- | --- | --- | --- |
| CC(C)C[C@H](NC(=O)c1ccc(C2CC2)c(OCC2CC2)c1)C(N)=O [Example 4, N^2-[4-Cyclopropyl-3-(cyclopropylmethoxy)benzoyl]-L-leucinamide] | > 10000 | 18 |  |
| CC(C)(C)c1nc(-c2ccc(C3CC3)c(OCC(F)(F)F)c2)no1 [Example 23, 5-tert-Butyl-3-[4-cyclopropyl-3-(2,2,2-trifluoroethoxy)phenyl]-1,2,4-oxadiazole] | > 10000 | 25.9 |  |
| CC(C)C[C@@H](CO)NC(=O)c1ccc(N2CC(F)(F)C2)c(OCC2CC2)c1 [Example 13, 3-(Cyclopropylmethoxy)-4-(3,3-difluoroazetidin-1-yl)-N-[(2S)-1-hydroxy-4-methylpentan-2-yl]benzamide] | > 10000 | 21.8 |  |
| Cc1nc([C@](C)(CS(C)(=O)=O)NC(=O)c2ccc(C3CC3)c(OCC(F)(F)F)c2)no1 [Example 28, 4-Cyclopropyl-N-[(2R)-1-(methanesulfonyl)-2-(5-methyl-1,2,4-oxadiazol-3-yl)propan-2-yl]-3-(2,2,2-trifluoroethoxy)benzamide] | > 10000 | 79.9 |  |
| Cc1nc([C@](C)(CC2CC2)NC(=O)c2ccc(C3CC3)c(-c3ccc(F)nc3)c2)no1 [Example 60, 4-Cyclopropyl-N-[(2S)-1-cyclopropyl-2-(5-methyl-1,2,4-oxadiazol-3-yl)propan-2-yl]-3-(6-fluoropyridin-3-yl)benzamide] | > 10000 | 98.4 |  |
| Cc1nc([C@@](C)(CC2CC2)NC(=O)c2ccc(C3CC3)c(OCCF)c2)no1 [Example 33] | > 10000 | 59.4 |  |
| CCC(CC)(NC(=O)c1ccc(C2CC2)c(OCC2CC2)c1)C(=O)O [Example 8, 2-[4-Cyclopropyl-3-(cyclopropylmethoxy)benzamido]-2-ethylbutanoic acid] | > 10000 |  | 2170 |
| CC(C)(C)c1noc(-c2ccc(C3CC3)c(N3CCC(F)(F)C3)c2)n1 [Example 47, 3-tert-Butyl-5-[4-cyclopropyl-3-(3,3-difluoropyrrolidin-1-yl)phenyl]-1,2,4-oxadiazole] | > 10000 | 5.33 |  |
| C[C@@](CC(N)=O)(NC(=O)c1ccc(C2CC2)c(-c2ccc(F)nc2)c1)C1CC1 [Example 53, N-[(2S)-4-Amino-2-cyclopropyl-4-oxobutan-2-yl]-4-cyclopropyl-3-(6-fluoropyridin-3-yl)benzamide] | > 10000 | 184 |  |
| C[C@@](CC(N)=O)(NC(=O)c1ccc(C2CC2)c(OCCF)c1)C1CC1 [Example 54, N-[(2S)-4-Amino-2-cyclopropyl-4-oxobutan-2-yl]-4-cyclopropyl-3-(2-fluoroethoxy)benzamide] | > 10000 | 231 |  |
| Cc1nc([C@](C)(CC2CC2)NC(=O)c2ccc(C3CC3)c(OCCF)c2)no1 [Example 34, (+)-4-Cyclopropyl-N-[1-cyclopropyl-2-(5-methyl-1,2,4-oxadiazol-3-yl)propan-2-yl]-3-(2-fluoroethoxy)benzamide] | > 10000 | 57 |  |
| CC(C)Oc1cc(C(=O)N2CC(F)(F)C[C@H]2C(N)=O)ccc1C1CC1 [Example 48, 1-{4-Cyclopropyl-3-[(propan-2-yl)oxy]benzoyl}-4,4-difluoro-L-prolinamide] | > 10000 |  | 377 |
| CNC(=O)[C@@H](NC(=O)c1ccc(C2CC2)c(N2CCC(F)(F)C2)c1)C(C)(C)C [Example 66, 4-Cyclopropyl-3-(3,3-difluoropyrrolidin-1-yl)-N-[(2S)-3,3-dimethyl-1-(methylamino)-1-oxobutan-2-yl]benzamide] | 42.1 | 0.48 |  |
| CNC(=O)[C@@H](NC(=O)c1ccc(C2CC2)c(OCC(F)(F)F)c1)C(C)(C)C [Example 41, 4-Cyclopropyl-N-[(2S)-3,3-dimethyl-1-(methylamino)-1-oxobutan-2-yl]-3-(2,2,2-trifluoroethoxy)benzamide] | 586 | 10 |  |
| C[C@](CC(N)=O)(NC(=O)c1ccc(C2CC2)c(N2CCC(F)(F)C2)c1)C1CC1 [Example 61, N-[(2R)-4-Amino-2-cyclopropyl-4-oxobutan-2-yl]-4-cyclopropyl-3-(3,3-difluoropyrrolidin-1-yl)benzamide] | 1790 | 2.5 |  |
| NC(=O)[C@@H]1CC(F)(F)CN1C(=O)c1ccc(C2CC2)c(OCC2CC2)c1 [Example 17, 1-[4-Cyclopropyl-3-(cyclopropylmethoxy)benzoyl]-4,4-difluoro-L-prolinamide] | > 10000 | 0.51 |  |
| CC(C)(NC(=O)c1ccc(N2CC(F)(F)C2)c(OCC2CC2)c1)c1noc(N)n1 [Example 11, N-[2-(5-Amino-1,2,4-oxadiazol-3-yl)propan-2-yl]-3-(cyclopropylmethoxy)-4-(3,3-difluoroazetidin-1-yl)benzamide] | > 10000 | 98.7 |  |
| CNC(=O)[C@@H](NC(=O)c1ccc(C2CC2)c(-c2ccnn2C)c1)C(C)(C)C [Example 56, 4-Cyclopropyl-N-[(2S)-3,3-dimethyl-1-(methylamino)-1-oxobutan-2-yl]-3-(1-methyl-1H-pyrazol-5-yl)benzamide] | > 10000 |  | 140 |
| NC(=O)[C@@H]1CC(F)(F)CN1C(=O)c1ccc(C2CC2)c(N2CCC(F)(F)C2)c1 [Example 65, 1-[4-Cyclopropyl-3-(3,3-difluoropyrrolidin-1-yl)benzoyl]-4,4-difluoro-L-prolinamide] | > 10000 | 18.1 |  |
| NC(=O)CC1(NC(=O)c2ccc(C3CC3)c(OCC3CC3)c2)CS(=O)(=O)C1 [Example 16, N-[3-(2-Amino-2-oxoethyl)-1,1-dioxothietan-3-yl]-4-cyclopropyl-3-(cyclopropylmethoxy)benzamide] | > 10000 | 2.65 |  |
| NC(=O)C1CC2(CC2)CN1C(=O)c1ccc(C2CC2)c(OCC2CC2)c1 (stereo not shown) [Example 22, 5-[4-Cyclopropyl-3-(cyclopropylmethoxy)benzoyl]-5-azaspiro[2.4]heptane-6-carboxamide] | > 10000 | 28.1 |  |
| Cc1nc(C(C)(C)NC(=O)c2ccc(C3CC3)c(OCC3CC3)c2)no1 [Example 3, 4-Cyclopropyl-3-(cyclopropylmethoxy)-N-[2-(5-methyl-1,2,4-oxadiazol-3-yl)propan-2-yl]benzamide] | > 10000 |  | 122 |
| C[C@@](CC(N)=O)(NC(=O)c1ccc(C2CC2)c(OCC(F)(F)F)c1)C1CC1 [Example 51, N-[(2S)-4-Amino-2-cyclopropyl-4-oxobutan-2-yl]-4-cyclopropyl-3-(2,2,2-trifluoroethoxy)benzamide] | > 10000 | 80.8 |  |
| CC(C)(NC(=O)c1ccc(C2CC2)c(OCC2CC2)c1)c1nccs1 [Example 6, 4-Cyclopropyl-3-(cyclopropylmethoxy)-N-[2-(1,3-thiazol-2-yl)propan-2-yl]benzamide] | 539 | 26 |  |
| Cc1nc([C@](C)(CC2CC2)NC(=O)c2ccc(C3CC3)c(OC(C)C)c2)no1 (single isomer, unassigned) [Example 38, 4-Cyclopropyl-N-[(2S)-1-cyclopropyl-2-(5-methyl-1,2,4-oxadiazol-3-yl)propan-2-yl]-3-[(propan-2-yl)oxy]benzamide or enantiomer] | > 10000 | 26.6 |  |
| Cc1nc([C@@](C)(CC2CC2)NC(=O)c2ccc(C3CC3)c(N3CCC(F)(F)C3)c2)no1 [Example 63, 4-Cyclopropyl-N-[(2R)-1-cyclopropyl-2-(5-methyl-1,2,4-oxadiazol-3-yl)propan-2-yl]-3-(3,3-difluoropyrrolidin-1-yl)benzamide] | 872 | 3.83 |  |
| Cc1nc([C@](C)(CC2CC2)NC(=O)c2ccc(C3CC3)c(OCC(F)(F)F)c2)no1 [Example 26, (+)-4-Cyclopropyl-N-[1-cyclopropyl-2-(5-methyl-1,2,4-oxadiazol-3-yl)propan-2-yl]-3-(2,2,2-trifluoroethoxy)benzamide] | > 10000 | 36.3 |  |
| Cn1nccc1-c1cc(C(=O)N2CC(F)(F)C[C@H]2C(N)=O)ccc1C1CC1 [Example 55, 1-[4-Cyclopropyl-3-(1-methyl-1H-pyrazol-5-yl)benzoyl]-4,4-difluoro-L-prolinamide] | > 10000 |  | 1910 |
| Cc1nc([C@](C)(CS(C)(=O)=O)NC(=O)c2ccc(C3CC3)c(OCC3CC3)c2)no1 [Example 21, 4-Cyclopropyl-3-(cyclopropylmethoxy)-N-[(2R)-1-(methanesulfonyl)-2-(5-methyl-1,2,4-oxadiazol-3-yl)propan-2-yl]benzamide] | > 10000 | 297 |  |
